Assay [1] deals with Rattus norvegicus. The experiment in a line: Anti-inflammatory activity in Rattus norvegicus Wistar (rat) assessed as inhibition of […]-induced ear edema administered 30 min prior to […] challenge measured after 30 min by Evans blue dye-based spectrophotometric analysis relative to control. Format: functional, organism-based.
The test system of assay [2] is Rattus norvegicus. Nature of the assay: Anti-inflammatory activity in Rattus norvegicus Wistar (rat) assessed as inhibition of histamine-induced dye extrusion from plantar surface of paws at 25 mg/kg, ip administered 30 min […] measured after 30 min by Evans blue dye-based spectroscopic analysis. The note with it: route intraperitoneal. Format: functional.

The subject of assay [3] is Rattus norvegicus. The experiment in a line: Anti-inflammatory activity in Rattus norvegicus Wistar (rat) assessed as inhibition of acetic acid-induced dye extrusion into peritonial cavity administered 30 min prior to acetic acid challenge measured after 30 min by Evans blue dye-based spectrophotometric analysis relative to control. Format: functional.
For assay [4], the system named is Rattus norvegicus. The experiment in a line: Anti-inflammatory activity in Rattus norvegicus Wistar (rat) assessed as cotton pellet-induced dry weight of granuloma administered 7 days post cotton pellet implantation measured on day 8 (reference value: […]). Format: functional.
Assay [5] deals with Rattus norvegicus. The experiment in a line: Anti-inflammatory activity in Rattus norvegicus Wistar (rat) assessed as inhibition of formalin-induced dye extrusion from plantar surface of paws at 25 mg/kg, ip administered 30 min prior to formalin challenge measured after 30 min by Evans blue dye-based spectrophotometric analysis. Format: functional. The note with it: route intraperitoneal.

Assay [6] has as its system Rattus norvegicus. Nature of the assay: Anti-inflammatory activity in Rattus norvegicus Wistar (rat) assessed as inhibition of formalin-induced paw edema at 25 mg/kg, ip administered 30 min prior to formalin challenge measured at 1 hr relative to control. Format: functional. Particulars: route intraperitoneal.
In assay [7] the test system is Rattus norvegicus. Nature of the assay: Anti-inflammatory activity in Rattus norvegicus Wistar (rat) assessed as inhibition of histamine-induced paw edema at 25 mg/kg, ip administered 30 min […] measured at 1 hr relative to control. Format: functional. The note with it: route intraperitoneal.

Calls of active or inactive are those of the source. No cut-off for these calls is given here.

What is called inhibition in vivo is how much of the control response was suppressed. As to `Cc1ccc(C(OCCN2CCOCC2)c2ccc(C)cc2)cc1`, the inhibition result in the assay with Rattus norvegicus [1] is “inactive”. Further, the inhibition in vivo at 25 mg/kg in the assay on Rattus norvegicus [2] and in the assay with Rattus norvegicus [5] was 60% in each case. Moreover, the “inhibition (INH)” value in the assay with Rattus norvegicus [3] is recorded as 63.26%. Besides, in the assay with Rattus norvegicus [4], the Activity was determined as 71 mg.

On to `Cc1ccc(C(OCCN(C)C)c2ccc(C)cc2)cc1` [DI(P-TOLYL)(DIMETHYLAMINOETHOXY)METHANE], for which the inhibition in vivo at 25 mg/kg in the assay on Rattus norvegicus [6] stood at 34.7%; in the assay on Rattus norvegicus [2], 57.1%; in the assay on Rattus norvegicus [7], 40.8%; in the assay on Rattus norvegicus [5], 66.7%. Further, the inhibition result with Rattus norvegicus [1] was “inactive”. For the same compound, the “inhibition (INH)” value with Rattus norvegicus [3] is 65.3%. The Activity with Rattus norvegicus [4] came out at 73.2 mg.

For `CN(C)CCOC(c1ccccc1)c1ccc(Br)cc1` (configuration not stated) [BROMODIPHENHYDRAMINE], the inhibition in vivo at 25 mg/kg with Rattus norvegicus [6] was found to be 14.3%; in the assay on Rattus norvegicus [7] it was 22.4%. In addition, the inhibition result in the assay with Rattus norvegicus [1] was “inactive”. Also, the inhibition entry with Rattus norvegicus [3] was “Active”.

As to `CN(C)CCOC(c1ccccc1)c1ccccc1` [DIPHENHYDRAMINE], the Activity in the assay with Rattus norvegicus [4] amounted to 76.2 mg.

These data come from ChEMBL document CHEMBL3046069, “Anti-inflammatory effects of two new methyl and morpholine derivatives of diphenhydramine on rats” (2012).
